Patent US20100130725A1, “METHODS FOR CHARACTERIZING MOLECULES” (priority 2008, published 2010)
Values joined by “and” are separate entries in the source; they are usually repeats but may differ in a detail not shown here. Identical values can stand only once. Like-named read-outs stand apart in the source and are kept apart here. Ends that are not written are not given here.

Legend:
Type in all cases: cell-based, human
[1] = system: A549 cells; experiment: Epic RWG biosensor DMR assay, agonist mode (primary profile), A549 cells; conditions: for DMR signal triggered by the ligand (primary profile), second ligand panel: FIG. 8: 40 μM pinacidil, 250 μg/ml poly(I:C), 8 μM PMA, 16 μM forskolin
Experimental: All cell lines were obtained from American Type Cell Culture (Manassas, Va.). The cell culture medium was as follows: Dulbecco's modified Eagle's medium (DMEM) supplemented with 10% fetal bovine serum (FBS), 4.5 g/liter glucose, 2 mM glutamine, and antibiotics for human epidermoid carcinoma A431 and human lung carcinoma A549.
Cells were typically grown using ˜1 to 2×10^4 cells per well at passage 3 to 15 suspended in 50 μl of the corresponding culture medium in the biosensor microplate, and were cultured at 37° C. under air/5% CO2 for ˜1 day. Except for A431, which was subject to ˜20 hr starvation through continuous culture in the serum-free DMEM, the other cell types were directly assayed without starvation. The confluency for all cells at the time of assays was ˜95% to 100%.
Epic® wavelength interrogation system (Corning Inc., Corning, N.Y.) was used for whole cell sensing. This system consists of a temperature-control unit, an optical detection unit, and an on-board liquid handling unit with robotics. The detection unit is centered on integrated fiber optics, and enables kinetic measures of cellular responses with a time interval of ˜15 sec.
The RWG biosensor is capable of detecting minute changes in local index of refraction near the sensor surface. Since the local index of refraction within a cell is a function of density and its distribution of biomass (e.g., proteins, molecular complexes), the biosensor exploits its evanescent wave to non-invasively detect ligand-induced dynamic mass redistribution in native cells. The evanescent wave extends into the cells and exponentially decays over distance, leading to a characteristic sensing volume of ˜150 nm, implying that any optical response mediated through the receptor activation only represents an average over the portion of the cell that the evanescent wave is sampling. The aggregation of many cellular events downstream the receptor activation determines the kinetics and amplitudes of a ligand-induced DMR.
(§1) For biosensor cellular assays, molecule solutions were made by diluting the stored concentrated solutions with the HBSS (1× Hanks balanced salt solution, plus 20 mM Hepes, pH 7.1), and transferred into a 384 well polypropylene molecule storage plate to prepare a molecule source plate. Both molecule and marker source plates were made separately when a two-step assay was performed. In parallel, the cells were washed twice with the HBSS and maintained in 30 μl of the HBSS to prepare a cell assay plate. Both the cell assay plate and the molecule and marker source plate(s) were then incubated in the hotel of the reader system. After ˜1 hr of incubation the baseline wavelengths of all biosensors in the cell assay microplate were recorded and normalized to zero. Afterwards, a 2 to 10 minute continuous recording was carried out to establish a baseline, and to ensure that the cells reached a steady state. Cellular responses were then triggered by pipetting 10 μl of the marker solutions into the cell assay plate using the on-board liquid handler.
First, a panel of ligands targeting GPCRs, each at 10 μM concentration, was chosen, and examined their actions on the A549 cells using DMR measurements with the Epic® system. The ligand panel included the four P2Y agonists ADP, […], UTP and UDP, the adenosine receptor agonist adenosine, the calcium sensing receptor agonist spermine, the histamine receptor agonist histamine, the adrenergic receptor agonist epinephrine, the free fatty acid receptor agonist elaidic acid, the lipoxin receptor agonist lipoxin A4, the bradykinin receptor agonist bradykinin, the adrenodullin receptor agonist adrenodullin, the PAR1 agonist SFLLR-amide, the angiotensin receptor agonist angiotensin, the neuropeptide Y receptor agonist neuropeptide Y, and the PAR2 agonist SLIGKV-amide.
Next, a second ligand panel was chosen, and examined their actions on the A549 cells using DMR measures with the Epic® system.

[2] = system: A549 cells; experiment: Epic DMR two-step assay, antagonist mode: modulation of marker-induced DMR signals in A549 cells; conditions: molecule 10 μM
Experimental: as §1
A second panel of markers was contacted with A549 cells at concentrations close to each of the marker's EC80 or EC100, and DMR measurements were obtained with and EPIC® system. This panel included poly(I:C), SLIGKV-amide, pinacidil, PMA, histamine, and forskolin. Each of these markers also leads to a wide array of cell signaling. Using Epic® cellular assays in conjunction with chemical biology and cell biology approach similar to the EGFR DMR mentioned above, we have determined the pathway(s) and network interaction(s) that is accounted for each marker-induced DMR signal in A549 cells. The main observations are summarized below. Poly(I:C) is an agonist for endogenous Toll-like receptor(s) in A549, whose activation leads to IKK pathway and AKT pathway. SLIGKV-amide is an agonist for endogenous protease activated receptor subtype 2 (PAR2) in A549, whose activation leads to Gq-, Gi- and G12/13-mediated signaling. Pinacidil is an opener for endogenous ATP-sensitive potassium (KATP) ion channel in A549, whose activation leads to Rho- and JAK-mediated signaling. PMA is an activator for protein kinase C (PKC), whose activation leads to PKC pathway and degranulation. Histamine is a natural agonist for endogenous histamine receptors (dominantly H1R, and possibly H3R), whose activation leads to dual signaling, possibly through Gq and Gi mediated signaling in A549. Forskolin is an activator for adenylyl cyclases, whose activation leads to cAMP-PKA pathway in A549. […] Each DMR signal represents an averaged response of 4 replicates.
A DMR index was generated for four ligand molecules. Quiescent A431 and proliferating A549 cells were separately exposed to the ligand molecules for about 1 hr to generate their primary profiles, followed by stimulation with each marker at a fixed concentration (as mentioned in FIGS. 7 and 8) for another 1 hr or so to generate secondary profiles of the molecule against the panels of markers in both types of cells. Next, one or more specific DMR parameters were chosen as a readout for plotting the DMR index of the molecule. For the pinacidil DMR response in A549, the amplitude of the N-DMR (i.e., the amplitude 30 min after stimulation) was chosen. For the poly(I:C) DMR response in A549, the amplitude of the late DMR (i.e., the amplitude 50 min after stimulation) was chosen. For the PMA response in A549, the late DMR amplitude (i.e., the amplitude 50 min after stimulation) was chosen. For the SLIGKV-amide DMR response in A549, the P-DMR amplitude (i.e., the amplitude 20 min after stimulation) was chosen. For the forskolin response in A549 cells, the P-DMR amplitude (i.e., the amplitude 50 min after stimulation) was chosen. For the histamine response in A549, both the early DMR amplitude (i.e., amplitude 10 min after stimulation) and the late response (i.e., the amplitude 30 min after stimulation) were chosen. […]

[3] = system: quiescent A431 cells; experiment: Epic DMR two-step assay, antagonist mode: modulation of marker-induced DMR signals in quiescent A431 cells
Experimental: as §1
Next, the target specificity and signaling pathway of EGF was probed using a second set of assays.
A first panel of markers was contacted with quiescent A431 cells at concentrations close to each of the marker's EC80 or EC100, and DMR measurements were obtained with and EPIC® system. This panel of markers was selected from a library of markers identified in A431 cells using Epic® cellular assays. This panel included epidermal growth factor (EGF), epinephrine, nicotinic acid, and histamine. Each of these markers leads to a wide array of cell signaling. […] Each DMR signal represents an averaged response of 4 replicates.
A DMR index was generated for four ligand molecules. Quiescent A431 and proliferating A549 cells were separately exposed to the ligand molecules for about 1 hr to generate their primary profiles, followed by stimulation with each marker at a fixed concentration (as mentioned in FIGS. 7 and 8) for another 1 hr or so to generate secondary profiles of the molecule against the panels of markers in both types of cells. Next, one or more specific DMR parameters were chosen as a readout for plotting the DMR index of the molecule. For the pinacidil DMR response in A549, the amplitude of the N-DMR (i.e., the amplitude 30 min after stimulation) was chosen. For the poly(I:C) DMR response in A549, the amplitude of the late DMR (i.e., the amplitude 50 min after stimulation) was chosen. For the PMA response in A549, the late DMR amplitude (i.e., the amplitude 50 min after stimulation) was chosen.

[4] = quiescent A431, ligand 10 μM, about 1 hr pretreatment, 32 nM EGF

Compound: CNC[C@H](O)c1ccc(O)c(O)c1 [epinephrine]
- DMR signal triggered by the ligand (primary profile) [1]: robust DMR signals

Compound: Nc1ncnc2c1ncn2[C@@H]1O[C@H](CO)[C@@H](O)[C@H]1O [adenosine]
- DMR signal triggered by the ligand (primary profile) ([1]; A549 cells, ligand 10 μM): robust DMR signals

Compound: O=S(=O)(c1cccc2cnccc12)N1CCCNCC1 [HA1077]
- modulation of the PMA response [2]: significantly potentiated
- modulation of the histamine response [2]: significantly potentiated
- modulation of the pinacidil response [2]: almost completely attenuated
- modulation of PMA-induced DMR response (late DMR amplitude) ([2]; 8 μM PMA, amplitude 50 min after stimulation): +36%
- modulation of SLIGKV-amide-induced DMR response (P-DMR amplitude) ([2]; 8 μM SLIGKV-amide, amplitude 20 min after stimulation): +22%
- modulation of histamine-induced DMR response (early P-DMR) ([2]; 10 μM histamine, amplitude 10 min after stimulation): +26%
- modulation of histamine-induced DMR response (late P-DMR) ([2]; 10 μM histamine, amplitude 30 min after stimulation): +55%
- modulation of forskolin-induced DMR response (P-DMR amplitude) ([2]; 16 μM forskolin, amplitude 50 min after stimulation): +18%
- modulation of poly(I:C)-induced DMR response (late DMR amplitude) ([2]; 250 μg/ml poly(I:C), amplitude 50 min after stimulation): +18%
- modulation of pinacidil-induced DMR response (N-DMR amplitude) ([2]; ~1 hr pretreatment, 40 μM pinacidil, amplitude 30 min after stimulation): −86% and −95%

Compound: BML-265
- modulation of the EGF-induced DMR signal [3, 4]: almost completely blocked

Compound: N#CC(=C(/N)Sc1ccccc1N)/C(C#N)=C(\N)Sc1ccccc1N [U0126]
- modulation of the EGF-induced DMR signal [3]: significantly and selectively attenuated the N-DMR and the RP-DMR signals

Compound: poly(I:C)
- DMR signal triggered by the ligand (primary profile), second ligand panel ([1]; A549 cells): robust DMR signals

Compound: adrenodullin: adrenodullin receptor agonist (YRQSMNNFQGLRSFGCRFGTCTVQKLAHQIYQFTDKDKDNVAPRSKISPQGY; ends and bridges not checked; cysteine pairing not given here; UniProt P35318 95-146, looked up)
- DMR signal triggered by the ligand (primary profile) ([1]; A549 cells, ligand 10 μM): robust DMR signals

Compound: CNCCNS(=O)(=O)c1cccc2cnccc12 [H8]
- modulation of the epinephrine response ([3]; A431, molecule 10 μM): less effective at attenuating
- modulation of the histamine response ([3]; A431, molecule 10 μM): less effective at attenuating

Compound: SLIGKV-NH2
- DMR signal triggered by the ligand (primary profile) ([1]; A549 cells, ligand 10 μM): robust DMR signals

Compound: CCCCCCCCCCCCCC(=O)O[C@@H]1[C@@H](C)[C@@]2(O)[C@@H](C=C(CO)C[C@]3(O)C(=O)C(C)=C[C@@H]23)[C@@H]2C(C)(C)[C@]12OC(C)=O [PMA, Phorbol 12-myristate 13-acetate]
- DMR signal triggered by the ligand (primary profile), second ligand panel ([1]; A549 cells): robust DMR signals

Compound: neuropeptide Y
- DMR signal triggered by the ligand (primary profile) ([1]; A549 cells, ligand 10 μM): robust DMR signals

Compound: NCCc1c[nH]cn1 [histamine]
- DMR signal triggered by the ligand (primary profile) ([1]; A549 cells, ligand 10 μM): robust DMR signals

Compound: angiotensin
- DMR signal triggered by the ligand (primary profile) ([1]; A549 cells, ligand 10 μM): robust DMR signals

Compound: CC(N/C(=N\C#N)Nc1ccncc1)C(C)(C)C (stereo not shown) [pinacidil]
- DMR signal triggered by the ligand (primary profile), second ligand panel ([1]; A549 cells): robust DMR signals

Compound: Nc1ncnc2c1ncn2[C@@H]1O[C@H](COP(=O)(O)OP(=O)(O)OP(=O)(O)O)[C@@H](O)[C@H]1O [AT]
- DMR signal triggered by the ligand (primary profile) ([1]; A549 cells, ligand 10 μM): robust DMR signals

Compound: SFLLR-amide
- DMR signal triggered by the ligand (primary profile) ([1]; A549 cells, ligand 10 μM): robust DMR signals

Compound: NCCCNCCCCNCCCN [spermine]
- DMR signal triggered by the ligand (primary profile) ([1]; A549 cells, ligand 10 μM): robust DMR signals

Compound: CCCCCCCC/C=C/CCCCCCCC(=O)O [elaidic acid]
- DMR signal triggered by the ligand (primary profile) ([1]; A549 cells, ligand 10 μM): robust DMR signals

Compound: COc1cc2ncnc(Nc3cccc(Cl)c3)c2cc1OC [AG1478]
- modulation of the EGF-induced DMR signal [3, 4]: almost completely blocked

Compound: CCCCC[C@H](O)/C=C/C=C\C=C\C=C\[C@@H](O)[C@@H](O)CCCC(=O)O [lipoxin A4]
- DMR signal triggered by the ligand (primary profile) ([1]; A549 cells, ligand 10 μM): robust DMR signals

Compound: O=c1ccn([C@@H]2O[C@H](COP(=O)(O)OP(=O)(O)O)[C@@H](O)[C@H]2O)c(=O)[nH]1 [UDP]
- DMR signal triggered by the ligand (primary profile) ([1]; A549 cells, ligand 10 μM): robust DMR signals

Compound: O=c1ccn([C@@H]2O[C@H](COP(=O)(O)OP(=O)(O)OP(=O)(O)O)[C@@H](O)[C@H]2O)c(=O)[nH]1 [UTP]
- DMR signal triggered by the ligand (primary profile) ([1]; A549 cells, ligand 10 μM): robust DMR signals

Compound: CC(=O)c1c(O)c(C)c(O)c(Cc2c(O)c3c(c(C(=O)/C=C/c4ccccc4)c2O)OC(C)(C)C=C3)c1O [rottlerin]
- modulation of the EGF-induced DMR signal [3, 4]: specifically caused the truncation of the early P-DMR event, as well as part of the early N-DMR event

Compound: Nc1ncnc2c1ncn2[C@@H]1O[C@H](COP(=O)(O)OP(=O)(O)O)[C@@H](O)[C@H]1O [ADP]
- DMR signal triggered by the ligand (primary profile) ([1]; A549 cells, ligand 10 μM): robust DMR signals
